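All cell lines were grown in 96-well plates and treated with compound for 48 hours. GI50 is the concentration that inhibits growth by half.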 Calls of active or inactive are those of the source. Cut-off read from the data, not from the text of the source: active = GI50 up to about 1.1 µM and inactive = higher.
What was measured:
Experiment in all cases: NCI-60 cell line screen, 48 h
KM-20L2 = test system: KM-20L2
SNB-78 = test system: SNB-78
HOP-18 = test system: HOP-18
M19-MEL = test system: M19-MEL
RXF 631 = test system: RXF 631

Measured: GI50

CC1=C[C@]2(O)C(=O)[C@H](C)C[C@H]3[C@@H](CC[C@@](C)(O)/C=C\2C1=O)C3(C)C
inactive: KM-20L2 14.5 µM | SNB-78 26.2 µM | HOP-18 44.9 µM | M19-MEL 18.5 µM | RXF 631 31.1 µM

CC(C)c1cccc2sc(NC(=O)C(=O)C(C#N)c3cccc4ccccc34)nc12 (centres undefined)
inactive: KM-20L2 > 100 µM | SNB-78 93.1 µM | HOP-18 61.2 µM | M19-MEL 91.4 µM | RXF 631 > 100 µM

CCC1CN2CCC3(c4ccccc4)CC(C(=O)OC)=CC1C23 (centres undefined)
inactive: KM-20L2 16.3 µM | SNB-78 19.3 µM | HOP-18 14.9 µM | M19-MEL 17.1 µM | RXF 631 15 µM

C=CCCC(=O)CC(=O)OCc1ccccc1
inactive: KM-20L2 > 100 µM | SNB-78 > 100 µM | HOP-18 > 100 µM | M19-MEL > 100 µM | RXF 631 > 100 µM

COc1ccc(/C(C=O)=C(\Cl)c2ccc(OC)c(OC)c2)cc1
inactive: KM-20L2 > 100 µM | SNB-78 23 µM | HOP-18 > 100 µM | M19-MEL > 100 µM | RXF 631 > 100 µM

CC(C)c1cccc(C(C)C)c1NC(=O)C(=O)C1CCC2=C(Sc3ccccc3N2)C1=O (centres undefined)
inactive: KM-20L2 86.3 µM | SNB-78 > 100 µM | HOP-18 > 100 µM | M19-MEL > 100 µM | RXF 631 4.18 µM

COc1cccc2c1C(=O)c1c(O)c3c(c(O)c1C2=O)C[C@@](O)(C(C)=O)CC3S(=O)(=O)O (some centres undefined)
inactive: KM-20L2 > 100 µM | SNB-78 > 94.2 µM | HOP-18 > 100 µM | M19-MEL > 100 µM | RXF 631 > 100 µM

NC1=NN(c2ccccc2)C(=O)C1C(=O)C(=O)Nc1ccc(Cl)cc1 (centres undefined)
inactive: KM-20L2 > 100 µM | SNB-78 > 100 µM | HOP-18 > 100 µM | M19-MEL > 100 µM | RXF 631 > 100 µM

CC(C)[C@@H](C)CC[C@@H](C)C1CC=C2[C@@H]3CCC4C[C@@H](O[Si](C)(C)C(C)(C)C)CC[C@]4(C)C3CC[C@@]21C (some centres undefined)
inactive: KM-20L2 > 100 µM | SNB-78 > 100 µM | HOP-18 > 100 µM | M19-MEL > 100 µM | RXF 631 > 100 µM

Cc1ccc(SC(CCC(Sc2ccc(C)cc2)Sc2ccc(C)cc2)Sc2ccc(C)cc2)cc1
inactive: KM-20L2 > 100 µM | SNB-78 > 100 µM | M19-MEL > 100 µM | RXF 631 > 100 µM
